Source: paper PMC8424300, “Identification of novel microtubule inhibitors effective in fission yeast and human cells and their effects on breast cancer cell lines” (Open Biology, 2021)
pIC50: −log10 of the molar value. Like-named read-outs stand apart in the source and are kept apart here.

Columns and labels:
WTβIII HeLa cell line = test: Cell viability in HeLa cell line overexpressing wild-type βIII tubulin; format: cell-based; conditions: Homo sapiens
Experimental: One of the main mechanisms of drug resistance is due to the overexpression of class III β tubulin. […] The ability of L1 to overcome β III tubulin-mediated multidrug resistance was evaluated in two HeLa isogenic cell lines.
Figure 7.
(§1) Cells were plated in 384-well plates at a density of 800 cells per well in 22.5 µl of media. After 24 h, 2.5 µl drug was diluted in media and was added to each well. Following 5 days of incubation, viability was assessed using CellTiter-Glo (Promega) according to the manufacture's protocol. Luminescence in each well was measured using a Synergy Neo2 plate reader (BioTek).

CAL51 cells = test: Clonogenic (colony-forming) assay; format: cell-based, human; conditions: 0.1 nM BI2536 alone, 12 h exposure, 9 days growth
Experimental: Finally, a clonogenic assay was used to further evaluate the synergy effects between the L1 and Plk1 inhibitors to inhibit colony formation of breast cancer CAL51 cells after a 12 h drug exposure. The percentages of colony formation of cells treated with 0.1 nM BI2536 alone and 0.5 µM L1 alone were 89% and 67%, respectively, while cells treated with both 0.1 nM BI2536 and 0.5 µM L1 together were 2% (figure 10) indicating strong synergetic effects in colony formation.
Figure 10. Quantification of the colony formation experiments (n = 3) after a 12 h exposure. CAL51 cells were treated with vehicle control, 0.1 nM BI2536, 0.5 µM L1 or 0.1 nM BI2536 and 0.5 µM L1 for 12 h. Cells were grown for 9 days in fresh media after 12 h exposure. Mean ± s.e.m. (n = 3) is shown.
CAL51 cells were plated at a density of 200 cells per 60 mm tissue culture dish. After 24 h, they were treated with vehicle (DMSO), 0.1 nM BI2538, 0.5 µM L1 or the combination of 0.1 nM BI2538 and 0.5 µM L1, respectively, for 12 h. After an exposure, the cells were washed with warm sterile PBS, and incubated for additional 9 days in fresh media. After the incubation, cells were fixed and stained with a 20% MeOH: 0.01% crystal violet solution for 30 min. Colonies were counted using a stereomicroscope in three independent experiments.

[1] = biological target: T1, porcine brain tubulin heterodimer (Sus scrofa, UniProt P02550+P02554); test: In vitro tubulin polymerization assay; format: biochemical; conditions: 37°C; for pIC50: figure 3c, 1 h
T1 construct: highly purified porcine brain tubulin heterodimer; purchased Cytoskeleton T240 (kit BK011P); host or cells: porcine brain tissue
Experimental: To determine whether the 12 compounds affected mitotic spindle organization by directly interfering with tubulin polymerization, we performed in vitro tubulin polymerization assays. […] Tubulin polymerization was monitored every 1 min by measuring fluorescence absorbance at 340 nm for 1 h.
Figure 3. […] Tubulin was incubated with 5 µM of the compounds and DMSO for 60 min at 37°C. The fluorescence increase was monitored every minute at 340 nm. […] (b). […] Nocodazole (NOC) was used as the control. (c). […] (d) The same experiment as (c) but carried out at a different time.
The Tubulin Polymerization HTS Assay Kit (Cytoskeleton, BK011P) was used according to the manufacturer's instructions. All components were added into a 96-well microtiter plate (Corning Costar, cat. no. 3686), then the tubulin reaction mixture was quickly added to the wells, and tubulin polymerization was initiated and monitored every 1 min at 37°C for 1 h by recording fluorescence of excitation wavelength at 340 nm and emission at 450 nm. The tubulin reaction mixture was composed of 80 mM PIPES (pH 6.9), and 1 mM MgCl2, 1 mM EGTA, 1 mM GTP and 2 mg ml^−1 of highly purified porcine brain tubulin heterodimer (Cytoskeleton, cat. no. T240).

MDR-sup fission yeast = test: Phenotypic assay of microtubule organization in MDR-sup strain expressing GFP-atb2; format: cell-based, Schizosaccharomyces pombe; conditions: same phenotype = no interphase microtubules or mitotic spindles detectable, tubulin in nucleus; figure S2
Experimental: We have previously screened a collection of 10 371 small molecules to identify compounds that inhibit the growth of a multiple-drug-sensitive fission yeast strain (MDR-sup). We selected 248 compounds (2.4% of the total) that inhibited fission yeast cell growth rate by at least 50% (figure 1a) and subsequently conducted a phenotypic screen of these to identify drugs that affect microtubule organization (figure 1b). After the MDR-sup cells were treated with 5 µM of each compound for 3 h, microtubules were monitored using GFP tagged α-tubulin Atb2 and live-cell fluorescence microscopy. In untreated interphase cells, microtubules form long cytoplasmic arrays that run parallel to the long cellular axis, and in mitotic cells, microtubules form a bipolar spindle in the nucleus and the cytoplasmic microtubules disappear (figure 1c(i), arrow). […] This screen identified 34 compounds that induced cytological phenotypes indicative of defects in microtubule organization or function.
Figure 1. Phenotypic screening in MDR-sup fission yeast (a). Growth assay screening using MDR-sup strain. The optical density was measured with 20 µM of each compound and 248 compounds that gave at least 50% growth inhibition were used for further phenotyping marked by the red lines. Growth was normalized to DMSO-treated cells. (b) Schematic representation of the screening workflow. (c) Examples of the phenotypic assay using L1, P2 and B8 in the MDR-sup strain expressing GFP-atb2 (tubulin) are shown. Cells were incubated in 5 µM compound for 3 h and atb2 signals were detected in living cells. (i) Cells in absence of any compound. In interphase cells, α-tubulin Atb2 protein was detected in the nucleus and interphase microtubules, while mitotic spindles were detected in mitotic cells (arrows). (ii) In the presence of L1, microtubules were depolymerized and tubulin signals were detected distributed throughout the nucleus. (iii) In the presence of P2, short spindles were detected but anaphase spindles were not. (iv) In the presence of B8, interphase microtubules were not detected, while, dots were detected. […]

HeLa cells = test: Time-lapse live imaging of mitotic progression and cell fate in HeLa cells (H2B-mCherry, EGFP-α-tubulin); format: cell-based, human; conditions: for mitotic duration (prophase to cytokinesis): 24 h imaging, DMSO control 77 ± 6 min; for phenotype after mitotic arrest: 0.1 and 0.25 µM compound
Experimental: To determine whether these 34 compounds also induce mitotic abnormalities in human cells, a second screen of these compounds was conducted using HeLa cells. We used time-lapse microscopy to monitor mitotic progression in HeLa cells expressing mCherry-tagged histone H2B to mark chromatin, and EGFP-tagged α-tubulin to monitor microtubules over a 24 h time period in the presence of 2 µM of each of the 34 compounds. The duration of mitosis was determined by live-cell imaging, defined as the period from prophase to cytokinesis based on chromatin and microtubule morphologies (figure 2a). The control DMSO-treated cells progressed through mitosis with a mean mitotic duration of 77 ± 6 min. Among the 34 compounds we tested, nine caused a significant increase in mitotic duration in human cells (figure 2a), ranging from 122 ± 42 min (F15) to 720 ± 53 min (C16). […] As described in the Discussion, we have not carried out a detailed analysis for B8 in this study. To determine whether these cell deaths were caused by apoptosis, caspase activity was assayed for 24 h using time-lapse microscopy in the presence of the 12 compounds. Caspase 3 and Caspase 7 activities were observed 12–24 h after the addition of the compounds (electronic supplementary material, figure S1A). There were also other indications of apoptosis including the morphological chances reminiscing of membrane blebbing, chromatin condensation and cell explosion (electronic supplementary material, figure S1B). Caspase-mediated apoptosis induction is similar to the effects of mitotic arrest caused by anti-microtubule drugs in HeLa cells. […] We conclude that these 12 compounds cause mitotic arrest followed by cell death through apoptotic activation.
Figure 2. Effect of compounds on mitotic progression in HeLa cell (a). Duration of mitosis was analysed by live imaging of HeLa cells stably expressing H2B-mcherry (red) and EGFP-a tubulin (green) treated in the presence of 0.5 µM (K1, L1, J1) or 2 µM (C16, E2, O12, M2, I15, J3, I2, A15, F15) compound for 24 h and the time in mitosis was measured in 200 cells. DMSO-treated cells are shown, which served as the vehicle control. Show mean as ‘+’. (b). The Cell fate after mitosis (normal division, abnormal division or cell death) was quantitatively assessed after the mitotic arrest observed in (a). (c) Dose-dependent change of phenotypes after mitotic arrest with K1, L1 and J1.
For live-cell imaging experiments, 200 000 cells were seeded onto glass-bottom culture dishes (MatTek P35GC-1.5-14-C). Cells were grown overnight before the addition of the compound, and the culture media was replaced with fresh media lacking phenol red to limit phototoxicity before imaging.
Live-cell imaging was performed in a LCV110 U VivaView FL incubator microscope (Olympus) equipped with an X-Cite-exacte illumination source (Excelitas Technologies) and Orca-R2 CCD camera (Hamamatsu Photonics). For screening, images were acquired with a 20 × objective every 15 min for 24–48 h in the differential interference contrast (DIC), m-cherry and GFP channels. For assessment of apoptosis, the cells were monitored every 15 min for 24 h. Individual cells were manually analysed using the CellCognition browser.

[2] = system: BT549, CAL51 and MB-157 breast cancer cell lines; test: Viability dose-response in breast cancer cell lines; format: cell-based; conditions: Homo sapiens, 96 h; range over the breast cell lines and the non-cancer cell line MCF-10A; 4 days of treatment
Experimental: The sensitivity of the inhibitors L1, J3, A15 and M2 were evaluated in three breast cancer cell lines, (BT549, CAL51 and MB-157) and a non-cancer cell line from the human mammary gland, MCF-10A (figure 8). Drug sensitivity was determined by culturing breast cancer cell lines (black lines) and the non-cancer cell line (red line) with a range of concentrations of each compound, and viability was measured after 4 days of treatment in triplicate.
Figure 8. Dose–response curves in three cancer cell lines (BT549, CAL51 and MB-157) are shown in black and non-cancer cell line; MCF-10A is shown in red. They were subjected to a dose–response matrix of the tubulin inhibitor, L1, A15, M2 and J3, respectively. Viability relative to the vehicle control was measured […] after treatment. Mean ± s.e.m. for n = 3 experiments is shown.
as §1

[3] = read-out: IC50 of tubulin polymerization

T1 sequence (P02554 whole entry): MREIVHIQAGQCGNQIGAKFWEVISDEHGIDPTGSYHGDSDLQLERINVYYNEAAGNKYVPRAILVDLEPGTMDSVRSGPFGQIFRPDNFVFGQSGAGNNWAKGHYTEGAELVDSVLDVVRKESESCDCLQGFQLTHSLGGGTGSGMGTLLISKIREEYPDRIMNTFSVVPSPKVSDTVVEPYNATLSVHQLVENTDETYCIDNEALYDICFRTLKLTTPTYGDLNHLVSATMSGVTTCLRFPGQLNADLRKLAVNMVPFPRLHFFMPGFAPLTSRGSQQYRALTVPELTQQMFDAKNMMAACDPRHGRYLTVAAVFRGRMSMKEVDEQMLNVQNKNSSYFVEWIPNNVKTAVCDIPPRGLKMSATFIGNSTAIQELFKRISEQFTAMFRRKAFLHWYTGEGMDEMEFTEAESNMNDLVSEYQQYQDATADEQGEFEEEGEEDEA
T1 sequence (P02550 whole entry): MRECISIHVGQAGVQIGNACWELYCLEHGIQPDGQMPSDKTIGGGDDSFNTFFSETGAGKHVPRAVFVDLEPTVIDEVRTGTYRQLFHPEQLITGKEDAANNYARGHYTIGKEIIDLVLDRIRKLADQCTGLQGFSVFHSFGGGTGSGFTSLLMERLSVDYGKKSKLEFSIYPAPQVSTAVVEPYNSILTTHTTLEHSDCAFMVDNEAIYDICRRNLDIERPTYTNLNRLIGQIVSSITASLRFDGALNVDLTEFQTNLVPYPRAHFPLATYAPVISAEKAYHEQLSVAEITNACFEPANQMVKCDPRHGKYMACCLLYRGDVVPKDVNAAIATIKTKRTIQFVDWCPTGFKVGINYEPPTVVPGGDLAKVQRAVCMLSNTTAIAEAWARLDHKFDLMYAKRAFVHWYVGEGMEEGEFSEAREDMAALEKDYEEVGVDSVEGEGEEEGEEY

In the case of `CC(=O)O[C@H]1C(=O)[C@@]2(C)[C@H]([C@H](OC(=O)c3ccccc3)[C@]3(O)C[C@H](OC(=O)[C@H](O)[C@@H](NC(=O)c4ccccc4)c4ccccc4)C(C)=C1C3(C)C)[C@]1(OC(C)=O)CO[C@@H]1C[C@@H]2O` [paclitaxel], the pIC50 (WTβIII HeLa cell line) was 8.25.

With `CC[C@@H]1C(=O)N(C)c2cnc(Nc3ccc(C(=O)NC4CCN(C)CC4)cc3OC)nc2N1C1CCCC1` [BI2536, reference compound] the “percentage of colony formation” value (CAL51 cells) was 89%.

With `COC(=O)Nc1nc2ccc(C(=O)c3cccs3)cc2[nH]1` [NOC, nocodazole, reference compound] the pIC50 ([1]; IC50 of tubulin polymerization) was 6.25 and the “microtubule phenotype with known inhibitors of microtubule polymerization” value (MDR-sup fission yeast) was “same phenotype”.

With `CCCCNC(=O)n1c(NC(=O)OC)nc2ccccc21` [benomyl] the “microtubule phenotype with known inhibitors of microtubule polymerization” value (MDR-sup fission yeast) was “same phenotype”.

With `Nc1nn(S(=O)(=O)c2c(F)c(F)c(F)c(F)c2F)cc1-c1ccc(Cl)cc1` [C16] the “mitotic duration (prophase to cytokinesis)” value (HeLa cells; 2 µM compound) was 720 ± 53 min.

For `CC(C)(C)C#C/C=N/n1nnc(-c2ccccc2)n1` [F15], the “effect on in vitro tubulin polymerization” value ([1]; 5 µM compound, 60 min) was “no observable effects on polymerization” and the “mitotic duration (prophase to cytokinesis)” value (HeLa cells; 2 µM compound) was 122 ± 42 min.

In the case of `N#CCCS(=O)(=O)c1nnnn1-c1ccccc1` [M2], the pIC50 [2] was 5.72 to 5.85 and the pIC50 [1, 3] was 6.66.

`COc1ccc(C2Oc3ccc4ccccc4c3C=C2[N+](=O)[O-])cc1OC` (centres unmarked) [J1] was tested, and the cell fate (HeLa cells; 0.5 µM compound) was “arrested cells initially in mitosis, followed by cell death”, the cell fate (HeLa cells; 2 µM compound) was “immediately induced cell death independent of the phase of the cell cycle” and the “phenotype after mitotic arrest” value (HeLa cells) was “abnormal multipolar, asymmetric cell divisions, generating 3–4 daughter cells”.

With `O=[N+]([O-])C1=Cc2ccccc2OC1c1ccc2c(c1)OCO2` (centres unmarked) [K1] the pIC50 [1, 3] was 6.23, the cell fate (HeLa cells; 0.5 µM compound) was “arrested cells initially in mitosis, followed by cell death” and the cell fate (HeLa cells; 2 µM compound) was “immediately induced cell death independent of the phase of the cell cycle”. For the same compound, the “phenotype after mitotic arrest” value (HeLa cells) was “abnormal multipolar, asymmetric cell divisions, generating 3–4 daughter cells”.
